For data set [1], the system named is human peripheral blood mononuclear cells (PBMCs). The experiment in a line: Immunological screening model: IFN-γ produced in human PBMCs. Type of data set: cell-based. The source says: The present inventors have long been researching the active components in traditional Chinese herbal medicine and their applications in immunotherapy. The present inventors have established an immunological test model based on determination of the level of IFN-γ produced in human peripheral blood mononuclear cells (PBMCs). By this model, compounds having promotion (or inhibition) effects on human peripheral blood mononuclear cells (PBMCs) to produce γ-interferon can be screened out from chemical components from various sources including traditional Chinese herbal medicine, medicinal plants and so on. Since the γ-Interferon is an important protein (cytokine) in human body's immune system to resist attacks from diseases, its production level in body directly relates to the body's immunity. Therefore, the model is an ideal tool to screen and find functional pharmaceuticals for improving human immunity.
In addition, all the results and achievements of the present invention are based on the very effective screening model established by the present inventors. Therefore, a further objective of the present invention is to provide an experimental model for screening substances having impacts (either enhance or inhibit) on immunity. […] Finally, by using ELISA techniques, the levels of IFN-γ produced in the culture were measured at different incubation time. […]

Data set [2] has as its system human peripheral blood mixed lymphocytes. The experiment in a line: IFN-γ production in mixed lymphocyte culture (MLC) reaction. Particulars: final concentration 1000 ng/ml, 120 h. It counts as cell-based. The method, then:
Effect of icariside I on promotion of γ-interferon (interferon-gamma, IFN-γ) production by human peripheral blood mixed lymphocytes during culture (an experimental model mimicking enhancing immunity in human body).
(1) Preparation of human peripheral blood mononuclear cells (PBMCs): following the method in Example 5 (2), peripheral blood PBMCs from two normal human were prepared.
Cell concentrations of freshly isolated peripheral blood mononuclear cells (PBMCs) were adjusted to […] with RPMI1640 complete medium. Then, lymphocytes from two healthy human with equal volumes were mixed to maintain a total cell concentration of […]. Different concentrations (in a gradient) of or no icariside I were added thereto (with final concentration of 100 ng/ml, 1000 ng/ml) followed by fully mixing. Then the cells after stimulation were seeded and cultured in a 96-well round-bottom culture plate. The cell concentration per well was maintained at 2×10^5/ml (200 μl/well) and was incubated at 37° C. with 5% CO2 for 120 h in an incubator. The levels of cytokine IFN-γ were detected.
According to the method stated in Example 5 (4), the γ-interferon generated from human peripheral blood mixed lymphocyte culture (MLC) was detected.
Equal cell concentrations of lymphocytes from healthy human were mixed cultured for five days (120 h). The pharmaceutical icariside I was added (in a gradient of different pharmaceutical concentrations) or not added. […] Among them, the human lymphocyte A control is a group of samples containing only one kind of human lymphocyte, while human lymphocyte B control is a group of samples containing two kinds of human lymphocytes, that is, a control group in which two kinds of human lymphocytes were mixed for culture without adding icariside I. The concentrations of icariside I added were 0.1 and 1 μg/ml respectively. *P<0.05; **P<0.01. […]
Cell concentrations of freshly isolated peripheral blood mononuclear cells (PBMCs) were adjusted to 5×10^5/ml with RPMI1640 complete medium. […] The level of cytokine IFN-γ produced was then detected.

Data set [3] concerns S180 ascites tumor of mice. As to the kind of experiment: Inhibition of S180 tumor growth in mice. The conditions noted are these: 60 mg/Kg i.p., 10 days. On the procedure: NIH mice used for the tests were about 18-22 grams and divided into 10 mice per group. The liquid (0.2 ml) of S180 ascites tumor of mice was inoculated subcutaneously into the armpit region of mice. The next day after the inoculation, each group of mice were injected intraperitoneally: (1) physiological saline group; (2) solvent control group (DMSO); (3) positive control group [cyclophosphamide 60 mg/(kg·d)]; (4) low-dose group 1: icariside I 2 mg/(kg·d); (5) low-dose group 2: icariside I 5 mg/(kg·d); (6) middle-dose group: icariside I 10 mg/(kg·d); (7) high-dose group: icariside I 20 mg/(kg·d). After administration for 10 continuous days, the administration was stopped and on the next day, the mice were weighed and sacrificed with tumor mass stripped and weighed. The physiological saline group and solvent group were used as a control for calculation of tumor inhibition rate.

The results in this text go back to patent publication US11117919B2, “Icariside compound, preparation method thereof, and application thereof” (FOSHAN GOLDEN HEALTH TECHNOLOGY CO., LTD., priority 2015, dated 2021).

`CC(C)=CCc1c(OC2OC(CO)C(O)C(O)C2O)cc(O)c2c(=O)c(O)c(-c3ccc(O)cc3)oc12` (stereo not drawn) [icariside C]: in data set [1], the “effect in promoting PBMCs to generate IFN-γ” value was “significant effect”.
Turning to `COc1ccc(-c2oc3c(CC=C(C)C)c(O[C@@H]4O[C@H](CO)[C@@H](O)[C@H](O)[C@H]4O)cc(O)c3c(=O)c2O[C@@H]2O[C@@H](C)[C@H](O)[C@@H](O)[C@H]2O)cc1` [icariin, reference compound], the “ability to promote human γ-interferon production in mixed lymphocyte culture” value in data set [2] was “almost no effect”.
On to `O=P1(N(CCCl)CCCl)NCCCO1` (stereo not drawn) [cyclophosphamide, reference compound], for which, in data set [3], the “change of body weight (g)” value was “+4.5 g”; the “tumor inhibition rate (%) with physiological saline group as control” value worked out at 42.3%; the “tumor inhibition rate (%) with solvent group as control” value came to 55.2%; the “weight of tumor (x ± SD, g)” value was 0.6 ± 0.06 g.
